{"source": "patent US9988407B2", "about": "“Prodrugs of prostate specific membrane antigen (PSMA) inhibitor” (THE JOHNS HOPKINS UNIVERSITY, priority 2014, dated 2018)", "key": {"[1]": {"assay": "In vivo pharmacokinetics in mice, peroral, bioanalysis method 2 (2-PMPA release)", "details": "rodents and dogs", "protocol": "Blood was obtained via cardiac puncture and tissue dissected at 0 min, 15 min, 30 min, 1 h, 2 h, and 4 h post dose (n=3 per time point). Single time point studies were conducted at 30 min (N=3) following dosing. Plasma was harvested from blood by centrifugation. Mean concentration-time data was used for pharmacokinetic (PK) analysis. Non-compartmental-analysis module in WinNonlin® (version 5.3) was used to assess pharmacokinetic parameters. Peak plasma concentrations (Cmax) and time to Cmax (Tmax) were the observed values. Area under the curve (AUC) was calculated by log-linear (p.o.) trapezoidal rule to the end of sample collection (AUClast) and extrapolated to infinity (AUC0-∞) by dividing the last quantifiable concentration by the terminal disposition rate constant (ke). […] The tissues were stored in −20° C. for 1 h and then homogenized. The calibration curve for the tissues was developed using naïve mouse brains from untreated animals as a matrix. For sciatic nerve, the nerves were weighed and homogenized in 50 μL methanol and the calibration curve was developed using naïve sciatic nerves from untreated animals as a matrix. The samples were vortexed and centrifuged. […] Supernatant was dried under a gentle stream of nitrogen at 45° C. and the residue reconstituted with 75 μL of acetonitrile and vortexed. 25 μL of derivatizing agent N-tert-Butyldimethysilyl-N-methyltrifluoro-acetamide (MTBSTFA) was added to microcentrifuge tubes, vortexed, and heated at ˜60 OC for 40 min. At the end of 40 min, the derivatized samples ˜75 μL were transferred to a 250 μL polypropylene vials and were analyzed via LC/MS/MS. Chromatographic analysis was performed using an Accela™ ultra high-performance system consisting of an analytical pump, and an autosampler coupled with TSQ Vantage mass spectrometer (Thermo Fisher Scientific Inc., Waltham Mass.). […] The total run time for each analyte was 5.0 min. Chromatographic analysis will be performed on Accela UPLC."}, "[2]": {"assay": "Metabolic stability in human liver microsomes", "type": "in vitro ADME", "details": "10 μM, 37° C.", "in_short": "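Prodrugs at 10 μM were incubated in plasma or liver microsomes at 37° C, with triplicate samples taken at 0, 30 and 60 min and quenched in cold acetonitrile. Loss of prodrug was followed by LC/MS/MS in positive electrospray mode. Percent remaining came from the analyte-to-internal-standard peak-area ratio.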"}, "[3]": {"assay": "Metabolic stability in monkey liver microsomes", "type": "in vitro ADME", "details": "10 μM, 37° C.", "protocol": "(§1) For metabolic stability, plasma (mouse, dog, monkey and human) and liver microsomes (mouse, dog, monkey and human) were used. For stability, prodrugs (10 μM) were spiked in each matrix and incubated in an orbital shaker at 37° C. At predetermined times (0, 30 and 60 min), 100 μL aliquots of the mixture in triplicate were removed and the reaction quenched by addition of three times the volume of ice cold acetonitrile spiked with the internal standard (losartan 5 μM). The samples were vortexed for 30 s and centrifuged 12000 g for 10 min. 50 μL supernatant diluted with 50 μL water was transferred to a 250 μL polypropylene vial sealed with a Teflon cap. Prodrug disappearance was monitored over time using a liquid chromatography and tandem mass spectrometry (LC/MS/MS) method as described below.\n(§2) For LC/MS/MS, prodrugs were separated with Thermo Scientific Accela UPLC system coupled to Accela open autosampler on an Agilent C18 (100×2.1 mm id) UPLC column. The autosampler was temperature controlled and operating at 10° C. The mobile phase used for the chromatographic separation was composed of acetonitrile/water containing 0.1% formic acid and was run at a flow rate of 0.5 mL/minute for 4.5 minutes using gradient elution. The column effluent was monitored using TSQ Vantage triple-quadrupole mass spectrometric detector, equipped with an electrospray probe set in the positive ionization mode. Samples were introduced into the ionization source through a heated nebulized probe (350° C.).\n(§3) For quantification of compound remaining, disappearance of prodrugs was measured from ratio of peak areas of analyte to IS. Percentage remaining was calculated in the following manner: […]"}, "[4]": {"assay": "Metabolic stability in dog plasma", "type": "in vitro ADME", "details": "10 μM, 37° C.", "protocol": "as §1, §2, §3"}, "[5]": {"assay": "In vitro metabolic stability screen in plasma and liver subcellular fractions (results in words)", "type": "in vitro ADME", "details": "60 min incubation", "in_short": "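Prodrugs at 10 μM were incubated at 37° C in plasma and liver microsomes from mouse, dog, monkey and human. Samples were taken at 0, 30 and 60 min and quenched in acetonitrile. Percent remaining was quantified by LC/MS/MS (positive ESI) as analyte/internal standard peak-area ratio.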"}}, "note": "Where “and” joins values, the source holds several entries; their conditions need not be identical. Equal values may be shown once.", "data": [{"smiles": "CC(C)OC(=O)OCOC(=O)C(CCC(=O)O)CP(=O)(OCOC(=O)OC(C)C)OCOC(=O)OC(C)C", "note": "(centres unmarked) [Compound 10]", "values": [{"measurement": "oral bioavailability", "setting": "[1]", "value": "excellent oral bioavailability"}, {"measurement": "Percentage remaining", "setting": "[2]; 0 min", "value": 100, "unit": "%"}, {"measurement": "Percentage remaining", "setting": "[2]; 30 min, listed as TRIS-POC", "value": "5% and 3%"}, {"measurement": "Percentage remaining", "setting": "[2]; 60 min", "value": 0, "unit": "%"}, {"measurement": "Percentage remaining", "setting": "[3]; 0 min", "value": 100, "unit": "%"}, {"measurement": "Percentage remaining", "setting": "[3]; 30 min", "value": 0, "unit": "%"}, {"measurement": "Percentage remaining", "setting": "[3]; 60 min", "value": 0, "unit": "%"}, {"measurement": "Percentage remaining", "setting": "[4]; 0 min", "value": 100, "unit": "%"}, {"measurement": "Percentage remaining", "setting": "[4]; 30 min", "value": 67, "unit": "%"}, {"measurement": "Percentage remaining", "setting": "[4]; 60 min", "value": 28, "unit": "%"}, {"measurement": "in vitro metabolic stability", "setting": "[5]", "value": "instability in plasma and liver subcellular fractions"}]}]}
